Data taken from ChEMBL document CHEMBL5465560, “Selectivity Literature for EUbOPEN Chemogenomic Library” (2024).

Columns and labels:
[1] = biological target: T1, SNF-related serine/threonine-protein kinase (Homo sapiens) (UniProt Q9NRH2); assay: Selectivity interaction (ActivX KiNativ screen (kinase selectivity in THP-1 cell lysates)) EUB0000639a SNRK; type: subcellular; conditions: lysate, at 1 µM
T1 sequence (whole entry): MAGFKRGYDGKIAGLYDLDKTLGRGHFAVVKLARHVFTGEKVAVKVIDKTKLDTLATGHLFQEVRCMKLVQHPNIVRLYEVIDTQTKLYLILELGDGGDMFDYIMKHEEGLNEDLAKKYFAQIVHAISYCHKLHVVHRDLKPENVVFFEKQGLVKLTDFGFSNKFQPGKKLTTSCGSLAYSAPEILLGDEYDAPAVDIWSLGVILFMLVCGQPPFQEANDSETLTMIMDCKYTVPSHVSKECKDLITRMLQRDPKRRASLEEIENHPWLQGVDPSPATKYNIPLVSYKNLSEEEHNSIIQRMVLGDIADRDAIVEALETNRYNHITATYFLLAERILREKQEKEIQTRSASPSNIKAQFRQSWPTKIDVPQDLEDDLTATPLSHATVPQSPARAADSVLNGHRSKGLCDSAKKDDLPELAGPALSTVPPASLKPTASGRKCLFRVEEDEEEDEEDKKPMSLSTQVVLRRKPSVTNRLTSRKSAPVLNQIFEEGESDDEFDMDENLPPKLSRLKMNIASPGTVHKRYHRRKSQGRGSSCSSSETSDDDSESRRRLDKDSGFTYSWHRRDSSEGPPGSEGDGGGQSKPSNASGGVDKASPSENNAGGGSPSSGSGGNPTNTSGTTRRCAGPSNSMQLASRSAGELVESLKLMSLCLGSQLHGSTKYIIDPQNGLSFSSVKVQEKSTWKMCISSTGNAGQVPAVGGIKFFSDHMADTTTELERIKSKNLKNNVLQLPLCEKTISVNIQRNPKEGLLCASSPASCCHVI

[2] = biological target: T2, Serine/threonine-protein kinase BRSK2 (Homo sapiens) (UniProt Q8IWQ3); assay: Selectivity interaction (Kinase screening (Nanosyn)) EUB0000604a BRSK2
T2 sequence (whole entry): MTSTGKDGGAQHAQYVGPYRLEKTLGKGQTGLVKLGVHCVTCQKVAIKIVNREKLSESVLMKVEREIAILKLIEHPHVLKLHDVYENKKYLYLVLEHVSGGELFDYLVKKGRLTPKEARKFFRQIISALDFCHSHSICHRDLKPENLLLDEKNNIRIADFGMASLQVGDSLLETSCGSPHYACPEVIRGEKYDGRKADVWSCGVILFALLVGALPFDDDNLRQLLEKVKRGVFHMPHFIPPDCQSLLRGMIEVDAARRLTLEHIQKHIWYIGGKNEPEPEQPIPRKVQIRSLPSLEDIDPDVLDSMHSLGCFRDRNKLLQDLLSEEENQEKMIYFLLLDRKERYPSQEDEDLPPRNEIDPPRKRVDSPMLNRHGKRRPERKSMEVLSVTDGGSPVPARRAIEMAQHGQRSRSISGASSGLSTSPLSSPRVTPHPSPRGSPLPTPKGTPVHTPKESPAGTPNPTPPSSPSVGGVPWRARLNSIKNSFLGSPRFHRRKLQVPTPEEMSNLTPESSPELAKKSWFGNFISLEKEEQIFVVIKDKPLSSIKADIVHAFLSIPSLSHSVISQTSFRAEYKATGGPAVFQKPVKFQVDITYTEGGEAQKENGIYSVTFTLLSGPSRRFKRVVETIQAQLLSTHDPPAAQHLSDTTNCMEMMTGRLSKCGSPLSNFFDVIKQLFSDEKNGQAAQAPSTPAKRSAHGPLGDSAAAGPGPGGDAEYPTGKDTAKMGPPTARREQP

[3] = biological target: Serine/threonine-protein kinase PAK 1 (Homo sapiens) (UniProt Q13153); assay: Selectivity interaction (Ambit KINOMEscan and KiNATiv profiling in Jurkat cells) EUB0000090b PAK1; type: cell-based; conditions: at 1 µM
Sequence of Serine/threonine-protein kinase PAK 1 (Homo sapiens) (Q13153 whole entry): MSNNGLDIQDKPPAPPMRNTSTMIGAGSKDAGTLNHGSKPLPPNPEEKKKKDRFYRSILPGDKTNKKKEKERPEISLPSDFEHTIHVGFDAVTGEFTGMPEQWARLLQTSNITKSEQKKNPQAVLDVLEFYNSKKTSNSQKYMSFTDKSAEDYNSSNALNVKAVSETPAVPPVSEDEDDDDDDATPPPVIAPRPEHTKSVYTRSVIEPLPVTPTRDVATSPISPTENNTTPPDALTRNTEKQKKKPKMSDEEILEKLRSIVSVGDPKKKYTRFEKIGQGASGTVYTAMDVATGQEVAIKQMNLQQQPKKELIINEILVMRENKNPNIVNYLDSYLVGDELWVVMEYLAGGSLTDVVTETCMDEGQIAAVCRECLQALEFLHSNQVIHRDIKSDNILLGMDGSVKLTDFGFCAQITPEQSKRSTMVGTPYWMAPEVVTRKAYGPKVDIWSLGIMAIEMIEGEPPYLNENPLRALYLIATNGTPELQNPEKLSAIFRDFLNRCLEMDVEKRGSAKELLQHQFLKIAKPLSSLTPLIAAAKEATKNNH

[4] = biological target: Cyclin-dependent kinase 8 (Homo sapiens, UniProt P49336); assay: Selectivity interaction (KinomeScan (DiscoverX)) EUB0000618a CDK8; conditions: at 10 µM
Sequence of Cyclin-dependent kinase 8 (P49336 whole entry): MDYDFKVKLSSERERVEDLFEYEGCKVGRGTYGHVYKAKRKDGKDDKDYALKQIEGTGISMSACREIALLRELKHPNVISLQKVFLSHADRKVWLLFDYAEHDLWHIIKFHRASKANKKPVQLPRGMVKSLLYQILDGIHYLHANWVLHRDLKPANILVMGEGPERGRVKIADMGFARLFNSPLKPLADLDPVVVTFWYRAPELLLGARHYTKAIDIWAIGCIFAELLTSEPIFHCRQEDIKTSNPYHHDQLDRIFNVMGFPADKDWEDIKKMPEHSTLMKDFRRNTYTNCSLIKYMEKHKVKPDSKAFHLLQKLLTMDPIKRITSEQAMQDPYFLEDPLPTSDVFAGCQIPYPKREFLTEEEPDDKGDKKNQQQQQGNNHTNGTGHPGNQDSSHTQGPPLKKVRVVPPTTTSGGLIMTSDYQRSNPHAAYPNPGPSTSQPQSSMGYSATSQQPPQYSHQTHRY

[5] = biological target: T3, Serine/threonine-protein kinase Chk1 (Homo sapiens) (UniProt O14757); conditions: at 10 µM
T3 sequence (whole entry): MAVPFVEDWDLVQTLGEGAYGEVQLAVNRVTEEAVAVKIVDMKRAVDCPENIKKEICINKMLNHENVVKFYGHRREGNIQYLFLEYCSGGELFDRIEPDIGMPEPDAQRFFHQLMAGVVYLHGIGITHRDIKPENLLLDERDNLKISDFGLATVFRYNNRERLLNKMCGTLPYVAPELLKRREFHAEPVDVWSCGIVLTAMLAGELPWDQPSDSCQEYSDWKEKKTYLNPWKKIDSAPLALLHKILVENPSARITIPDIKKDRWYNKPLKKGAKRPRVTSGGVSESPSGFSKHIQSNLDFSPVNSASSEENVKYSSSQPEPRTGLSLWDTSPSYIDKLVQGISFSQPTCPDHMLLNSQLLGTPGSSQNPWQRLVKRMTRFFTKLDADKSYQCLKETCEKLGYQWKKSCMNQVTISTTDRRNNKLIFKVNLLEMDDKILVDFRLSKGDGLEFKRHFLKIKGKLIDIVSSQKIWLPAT

[6] = biological target: Calcium/calmodulin-dependent protein kinase type 1G (Homo sapiens) (UniProt Q96NX5); conditions: at 10 µM
Sequence of Calcium/calmodulin-dependent protein kinase type 1G (Homo sapiens) (Q96NX5 whole entry): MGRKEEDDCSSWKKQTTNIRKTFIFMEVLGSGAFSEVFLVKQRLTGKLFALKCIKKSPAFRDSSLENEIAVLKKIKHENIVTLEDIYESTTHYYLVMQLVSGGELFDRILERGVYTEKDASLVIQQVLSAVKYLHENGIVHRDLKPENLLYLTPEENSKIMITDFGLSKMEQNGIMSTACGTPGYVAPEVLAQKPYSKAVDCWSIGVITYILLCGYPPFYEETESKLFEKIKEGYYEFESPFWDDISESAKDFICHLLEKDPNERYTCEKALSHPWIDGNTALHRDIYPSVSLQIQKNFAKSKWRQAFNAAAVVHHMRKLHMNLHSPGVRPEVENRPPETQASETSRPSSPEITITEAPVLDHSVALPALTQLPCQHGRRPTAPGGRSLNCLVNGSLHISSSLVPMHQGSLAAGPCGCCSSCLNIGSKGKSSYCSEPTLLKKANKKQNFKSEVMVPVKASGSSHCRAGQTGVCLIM

[7] = biological target: Calcium/calmodulin-dependent protein kinase type 1D (Homo sapiens) (UniProt Q8IU85); assay: Selectivity interaction (ActivX KiNativ screen (ex vivo kinase selectivity in human PBMCs)) EUB0001619a CAMK1D; type: cell-based; conditions: PBMC, at 1 µM
Sequence of Calcium/calmodulin-dependent protein kinase type 1D (Homo sapiens) (Q8IU85 whole entry, looked up): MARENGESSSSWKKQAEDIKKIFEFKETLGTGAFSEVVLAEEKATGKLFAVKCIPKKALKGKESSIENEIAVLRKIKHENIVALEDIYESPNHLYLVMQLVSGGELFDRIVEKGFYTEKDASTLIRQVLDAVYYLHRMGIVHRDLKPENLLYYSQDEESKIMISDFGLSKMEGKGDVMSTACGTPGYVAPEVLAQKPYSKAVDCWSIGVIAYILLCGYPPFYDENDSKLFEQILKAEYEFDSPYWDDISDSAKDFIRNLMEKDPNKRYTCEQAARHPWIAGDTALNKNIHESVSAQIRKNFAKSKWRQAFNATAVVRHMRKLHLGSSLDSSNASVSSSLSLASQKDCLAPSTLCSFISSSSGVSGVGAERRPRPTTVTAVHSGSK

[8] = biological target: T4, Calcium/calmodulin-dependent protein kinase type IV (Homo sapiens) (UniProt Q16566); assay: Selectivity interaction (Upstate Kinase Profiler service (Millipore)) EUB0000056c CAMK4; conditions: at 1 µM
T4 sequence (whole entry): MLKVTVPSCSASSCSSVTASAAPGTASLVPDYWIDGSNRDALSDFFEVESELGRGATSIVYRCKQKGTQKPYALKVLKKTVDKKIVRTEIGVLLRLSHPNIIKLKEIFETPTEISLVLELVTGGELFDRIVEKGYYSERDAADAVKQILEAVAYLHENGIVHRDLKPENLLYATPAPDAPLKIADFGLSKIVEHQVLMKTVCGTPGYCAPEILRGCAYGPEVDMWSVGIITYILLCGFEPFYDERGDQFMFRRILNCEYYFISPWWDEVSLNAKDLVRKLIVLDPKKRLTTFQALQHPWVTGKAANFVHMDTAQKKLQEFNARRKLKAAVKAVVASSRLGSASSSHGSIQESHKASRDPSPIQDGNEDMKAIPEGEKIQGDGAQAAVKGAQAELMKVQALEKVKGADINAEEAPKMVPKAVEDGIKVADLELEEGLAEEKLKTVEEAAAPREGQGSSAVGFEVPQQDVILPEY

Work on `CC[C@@H]1[C@H](F)C(=O)N[C@@H]1COc1nccc2cc(C(N)=O)c(OC)cc12` [ZIMLOVISERTIB] yielded a % of inhibition [1] of 2.6%.

`Cc1cnc(Nc2ccc(F)cc2Cl)nc1-c1c[nH]c(C(=O)N[C@H](CO)c2cccc(Cl)c2)c1` gave a % of inhibition [2] of 2%.

`CN(C)C/C=C/C(=O)Nc1ccc(C(=O)N2CCCC(Nc3ncc(Cl)c(-c4c[nH]c5ccccc45)n3)C2)cc1` (stereo not drawn) gave a % of control [3] of 83%.

Compound `O[C@H]1CC[C@H](Nc2ncc3nc(Nc4c(F)cc(F)cc4F)n([C@H]4CCOC4)c3n2)CC1` has a % of control [4] of 100%.

`Cc1cc([C@@H](C)Nc2ccccc2C(=O)O)c2nc(N3CCOCC3)cc(=O)n2c1` [AZD-6482] showed a % of control [5] of 100% and a % of control [6] of 91%.

`N#Cc1cccc(-c2c[nH]c3ncnc(N4CCOCC4)c23)c1` was tested, and the % of inhibition [7] was 1%.

For `Cc1ccc(-c2ccc3c(ccc4sc5c(c43)NC[C@@H](C)NC5=O)n2)cn1`, the % of inhibition [8] was 15%.
